Measurements as given in patent US20030053995A1 (priority 2001, published 2003).
Where two headings read alike, the source gives them in different places. Blank lines part the entries; values can stand above or below the compound they belong to. Starred links: 1 amine or outer side, 2 acyl side, 3 side chain; linkers in the order of their positions; H or OH if unused. Positions of bridges follow the written chain, without caps; N, C: chain ends. Non-standard residues stand in square brackets, D forms with d. Residues, ends and D or L forms follow the SMILES beside them. Chains are numbered I, II in the order given. Actinocin(9to1) = Cc1c2oc3c(C)ccc(C(=O)[*:1])c3nc-2c(C(=O)[*:2])c(N)c1=O; NMeV = CN[C@H](C(=O)O)C(C)C; Sar = CNCC(=O)O

Key:
[1] = cited from earlier work; for dose excreted/detected intact in the urine: in vivo; for half-life of disappearance from plasma: after intravenous injection, after distribution; for binding to plasma proteins: result in words
[2] = cited from earlier work
[3] = tested on: ATRS (AT-rich consensus sequence) luciferase reporter with TK minimal promoter; experiment: EGF activation of ATRS luciferase reporter; type: cell-based
Source text: (FIG. 6A) A431, (FIG. 6B) MDA-MB-468, (FIG. 6C) HBL 100, and (FIG. 6D) CHO cells.
Next, four repeats of either the ATRS sites or the mutated sites were constructed in a luciferase reporter construct containing the mouse thymidine kinase gene (TK) minimal promoter. […] EGFR-dependent activation, however, could be restored in these two cell lines upon the cotransfection of the EGFR expression vector. Thus, the ATRS, which can bind to nuclear EGFR complex, responds to EGFR-dependent activation, whereas the mutant ATRS, which fails to bind to nuclear EGFR, loses it ability to respond to the EGFR-dependent activation.
Plasmids and transfection. The cytoplasmic domain (645-1186), tyrosine kinase domain (645-1011), and C-terminal proline rich region (1011-1086) of human EGFR were amplified by PCR and subcloned in frame into pSG424 to generate for each domain a fusion protein containing GAL4 DNA binding proteins. The fusion protein constructs were then transfected into a variety of cell lines along with GAL4CAT or GAL4Luc reporter plasmids via liposomal DC-Cole provide by Dr. Leaf Huang at University of Pittsburgh.

[4] = tested on: Cyclin D1 promoter (Cyclin D1-luc) in MDA-MB-468 cells; experiment: EGF activation of Cyclin D1 promoter luciferase reporter; type: cell-based; settings: EGF 100 ng/ml
Source text: In FIG. 7A, MDA-MB-468 cells were transfected with a luciferase vector containing the cyclin D1 promoter with two intact ATRS or the same promoter with the ATRS mutated. […] After precipitation with the EGFR antibodies (1 Santa Cruz, 2 NeoMarkers) or normal rabbit IgG, cyclin D1 promoter region was amplified by PCR. Input nuclear DNA (In) or water (dw) were used as PCR controls.
Targets for nuclear EGFR were identified. Since nuclear EGFR correlated with highly proliferative activity of cells, it was suspected that its target genes were likely involved in cell proliferation. One of the candidates, Cyclin D1, is a cell-cycle regulator essential for G1 phase progression. […] Two ATRS sequences are located in the proximal region of Cyclin D1 promoter between nucleotide −74 to −70 (TTTAT; SEQ ID NO:3) and −31 to −27 (TTTGT; SEQ ID NO:4), respectively. To test whether these two ATRS in Cyclin D1 promoter were responsive to EGFR activity, the reporter gene containing 163 bp of the Cyclin Dl promoter (Cyclin D1-luc) was tested. Many known transcription factor-binding sites had been eliminated from this construct but it still contained two ATRS described above.

[5] = EGFR-overexpressing cell lines A431 and MDA-MB-468, EGF 100 ng/ml

Compound: Cc1c2oc3c(C)ccc(C(=O)N[C@@H]4C(=O)N[C@H](C(C)C)C(=O)N5CCC[C@H]5C(=O)N(C)CC(=O)N(C)[C@@H](C(C)C)C(=O)O[C@@H]4C)c3nc-2c(C(=O)N[C@@H]2C(=O)N[C@H](C(C)C)C(=O)N3CCC[C@H]3C(=O)N(C)CC(=O)N(C)[C@@H](C(C)C)C(=O)O[C@@H]2C)c(N)c1=O [Actinomycin D] (I: T[dV]P[Sar][NMeV] / II: T[dV]P[Sar][NMeV]; ester I:1-I:C, II:1-II:C; linker I:N-II:N via Actinocin(9to1))
- dose excreted/detected intact in the urine [1]: 10%

Compound: O=NN(CCCl)C(=O)NCCCl [Carmustine, 1,3bis (2-chloroethyl)-1-nitrosourea]
- solubility in organic solvents / alcohol and lipids ([2]; result in words): highly soluble in alcohol and lipids

Compound: O=NN(CCCl)C(=O)NC1CCCCC1 [Lomustine, 1-(2-chloro-ethyl)-3-cyclohexyl-1 nitrosourea]
- tissue levels relative to plasma levels ([1]; 15 minutes after intravenous administration): comparable to plasma levels
- solubility ([2]; 10% ethanol): 0.05 mg per mL
- solubility ([2]; absolute alcohol): 70 mg per mL
- solubility ([2]; water): < 0.05 mg per mL

Compound: CC[C@]1(O)C[C@@H]2CN(CCc3c([nH]c4ccccc34)[C@@](C(=O)OC)(c3cc4c(cc3OC)N(C)[C@H]3[C@@](O)(C(=O)OC)[C@H](OC(C)=O)[C@]5(CC)C=CCN6CC[C@]43[C@@H]65)C2)C1 [Vinblastine]
- half-life of disappearance from plasma ([1]; first of two half-lives): approximately 1 hours
- half-life of disappearance from plasma ([1]; second of two half-lives): ~20 h
- dose excreted/detected intact in the urine [1]: Approximately 15%
- binding to plasma proteins [1]: bind to plasma proteins

Compound: CC[C@]1(O)C[C@H]2CN(CCc3c([nH]c4ccccc34)[C@@](C(=O)OC)(c3cc4c(cc3OC)N(C=O)[C@H]3[C@@](O)(C(=O)OC)[C@H](OC(C)=O)[C@]5(CC)C=CCN6CC[C@]43[C@@H]65)C2)C1 [Vincristine]
- binding to plasma proteins [1]: bind to plasma proteins

- activation of mutant ATRS reporter construct [3, 5]: only weakly activate
- activation of wild-type ATRS reporter construct [3, 5]: strongly activate
Compound: EGF: epidermal growth factor, ligand for EGFR
- activation of wild type or mutant ATRS reporter ([3]; cells with low (HBL100) or no EGFR (CHO), EGF 100 ng/ml): neither wild type nor the mutant reporter could be activated
- activation of Cyclin D1-luc(m) reporter with both ATRS mutated [4]: abolished
- activation of wild-type Cyclin D1-luc reporter [4]: up to four fold
